Here are results for 20 compounds from patent publication US9326985B2, “Heteroaryl pyridone and aza-pyridone amide compounds” (Genentech, Inc., priority 2013, dated 2016).

Assay [1] concerns the target T1, full length human wildtype Btk (Homo sapiens, UniProt Q06187).
T1 construct: V5 (C); 6xHis (C); made in house; host or cells: Sf9 insect cells (baculovirus, pFastBac)
The assay is described as follows: Biochemical Btk Assay (BTK LC3K). The procedure:
A generalized procedure for a standard biochemical Btk, Kinase Assay that can be used to test Formula I compounds is as follows. A master mix minus Btk enzyme is prepared containing 1× Cell Signaling kinase buffer (25 mM Tris-HCl, pH 7.5, 5 mM beta-glycerophosphate, 2 mM dithiothreitol, 0.1 mM Na3VO4, 10 mM MgCl2), 0.5 μM Promega PTK Biotinylated peptide substrate 2, and 0.01% BSA. A master mix plus Btk enzyme is prepared containing 1× Cell Signaling kinase buffer, 0.5 μM (micromolar) PTK Biotinylated peptide substrate 2, 0.01% BSA, and 100 ng/well (0.06 mU/well) Btk enzyme. Btk enzyme is prepared as follows: full length human wildtype Btk (accession number NM-000061) with a C-terminal V5 and 6×His tag was subcloned into pFastBac® vector (Invitrogen/Life Technologies) for making baculovirus carrying this epitope-tagged Btk. […] Passage 3 virus is used to infect Sf9 cells to overexpress the recombinant Btk protein. The Btk protein is then purified to homogeneity using Ni-NTA column. […] A solution of 200 μM ATP is prepared in water and adjusted to pH 7.4 with 1N NaOH. A quantity of 1.25 μL (microliter) of compounds in 5% DMSO is transferred to a 96-well ½ area Costar polystyrene plate. Compounds are tested singly and with an 11-point dose-responsive curve (starting concentration is 10 μM; 1:2 dilution). A quantity of 18.75 μL of master mix minus enzyme (as a negative control) and master mix plus enzyme is transferred to appropriate wells in 96-well ½ area costar polystyrene plate. 5 μL of 200 μM ATP is added to that mixture in the 96-well ½ area Costar polystyrene plate for final ATP concentration of 40 μM. The reaction is allowed to incubate for 1 hour at room temperature. The reaction is stopped with Perkin Elmer 1× detection buffer containing 30 mM EDTA, 20 nM SA-APC, and 1 nM PT66 Ab. […] IC50 values are subsequently calculated. Alternatively, the Lanthascreen assay can be used to evaluate Btk activity through quantification of its phosphorylated peptide product. The FRET (Fluorescence Resonance Energy Transfer) that occurs between the fluorescein on the peptide product and the terbium on the detection antibody decreases with the addition of inhibitors of Btk that reduce the phosphorylation of the peptide. In a final reaction volume of 25 uL, Btk (h) (0.1 ng/25 ul reaction) is incubated with 50 mM Hepes pH 7.5, 10 mM MgCl2, 2 mM MnCl2, 2 mM DTT, 0.2 mM NaVO4, 0.01% BSA, and 0.4 uM fluorescein poly-GAT. […] After incubation for 60 minutes at room temperature, the reaction is stopped by the addition of a final concentration of 2 nM Tb-PY20 detection antibody in 60 mM EDTA for 30 minutes at room temperature.

Assay [2] relates to CD69 by B lymphocytes in human whole blood activated with goat F(ab')2 anti-human IgM. Put plainly: CD69 Whole Blood Assay (CD69 Hu Blood FACS). The class given is cell-based. The note with it: Lymphocyte, CD69 positive of CD20 positive cells. As to the method: CD69 is a type II C-type lectin involved in lymphocyte migration and cytokine secretion.
Human blood is obtained from healthy volunteers, with the following restrictions: 1 week drug-free, non-smokers. Blood (approximately 20 mls to test 8 compounds) is collected by venipuncture into Vacutainer® (Becton, Dickinson and Co.) tubes with sodium heparin.
Solutions of Formula I compounds at 10 mM in DMSO are diluted 1:10 in 100% DMSO, then are diluted by three-fold serial dilutions in 100% DMSO for a ten point dose-response curve. The compounds are further diluted 1:10 in PBS and then an aliquot of 5.5 μl of each compound is added in duplicate to a 2 ml 96-well plate; 5.5 μl of 10% DMSO in PBS is added as control and no-stimulus wells. Human whole blood—HWB (100 μl) is added to each well. After mixing the plates are incubated at 37° C., 5% CO2, 100% humidity for 30 minutes. Goat F(ab′)2 anti-human IgM (10 μl of a 500 μg/ml solution, 50 μg/ml final) is added to each well (except the no-stimulus wells) with mixing and the plates are incubated for an additional 20 hours. At the end of the 20 hour incubation, samples are incubated with fluorescent labeled antibodies for 30 minutes, at 37° C., 5% CO2, 100% humidity. Include induced control, unstained and single stains for compensation adjustments and initial voltage settings. Samples are then lysed with PharM Lyse™ (BD Biosciences Pharmingen) according to the manufacturer's instructions. Samples are then transferred to a 96 well plate suitable to be run on the BD Biosciences HTS 96 well system on the LSRII machine. Data acquired and Mean Fluorescence Intensity values were obtained using BD Biosciences DIVA Software. Results are initially analyzed by FACS analysis software (Flow Jo).

T1 sequence (Q06187 whole entry): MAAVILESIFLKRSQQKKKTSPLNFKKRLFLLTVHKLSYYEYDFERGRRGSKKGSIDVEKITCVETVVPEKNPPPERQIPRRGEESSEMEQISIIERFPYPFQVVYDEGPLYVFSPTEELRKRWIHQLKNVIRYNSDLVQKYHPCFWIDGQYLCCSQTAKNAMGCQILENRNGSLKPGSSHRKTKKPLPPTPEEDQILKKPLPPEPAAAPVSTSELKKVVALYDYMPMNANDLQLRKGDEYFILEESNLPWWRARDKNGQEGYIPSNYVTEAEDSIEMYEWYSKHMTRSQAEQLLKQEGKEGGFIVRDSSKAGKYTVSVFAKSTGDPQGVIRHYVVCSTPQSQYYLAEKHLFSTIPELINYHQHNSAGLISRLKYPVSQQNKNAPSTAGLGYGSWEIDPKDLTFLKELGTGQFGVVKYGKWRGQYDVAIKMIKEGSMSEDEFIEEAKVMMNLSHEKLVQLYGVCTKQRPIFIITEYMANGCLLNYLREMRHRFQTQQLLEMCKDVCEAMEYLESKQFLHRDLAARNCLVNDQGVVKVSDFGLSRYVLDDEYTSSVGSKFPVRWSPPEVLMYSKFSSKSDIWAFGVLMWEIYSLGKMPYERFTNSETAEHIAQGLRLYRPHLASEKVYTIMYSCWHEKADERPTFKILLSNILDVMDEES

`CCOC1C[C@@H]1C(=O)Nc1cc(-c2ccnc(N3CCn4c(cc5c4CC(C)(C)C5)C3=O)c2CO)cn(C)c1=O` (mixture of isomers) [Compound 145, (1S)—N-[5-[2-(7,7-dimethyl-4-oxo-1,2,6,8-tetrahydrocyclopenta[3,4]pyrrolo[3,5-b]pyrazin-3-yl)-3-(hydroxymethyl)-4-pyridyl]-1-methyl-2-oxo-3-pyridyl]-2-ethoxy-cyclopropanecarboxamide]: the Ki (usually a dissociation constant, usually derived from enzyme kinetics or from competition with a known ligand) in assay [1] (Table 2) turned out to be 11 nM. Further, in assay [2] (Table 2, anti-IgM stimulation), 636 nM corresponded to half-maximal inhibition (IC50).

`Cn1cc(-c2ccnc(N3CCn4c(cc5c4CC(C)(C)C5)C3=O)c2CO)cc(NC(=O)[C@@H]2CC23CC3)c1=O` (single isomer, unassigned) [Compound 140] showed a Ki in assay [1] (Table 2) of 5.2 nM. In addition, it took 1400 nM to reach half-maximal inhibition in assay [2] (Table 2, anti-IgM stimulation) (IC50).

`Cn1cc(-c2ccnc(N3CCn4c(cc5c4CC(C)(C)C5)C3=O)c2CO)cc(NC(=O)[C@H]2CC23CC3)c1=O` (single isomer, unassigned) [Compound 141] registered a Ki in assay [1] (Table 2) of 5.8 nM. For the same compound, in assay [2] (Table 2, anti-IgM stimulation), it took 1600 nM to reach half-maximal inhibition (IC50).

In the case of `CCOC1C[C@H]1C(=O)Nc1cc(-c2ccnc(N3CCn4c(cc5c4CC(C)(C)C5)C3=O)c2CO)cn(C)c1=O` (single isomer, unassigned) [Compound 143], the affinity in assay [1] (Table 2) corresponds to a Ki of 53 nM. For the same compound, the IC50 (in general, the concentration needed to halve the response being measured) in assay [2] (Table 2, anti-IgM stimulation) was 2200 nM.

As for `Cn1cc(-c2ccnc(N3CCn4c(cc5c4CC(C)(C)C5)C3=O)c2CO)cc(NC(=O)[C@@H]2CC23CCC3)c1=O` (single isomer, unassigned) [Compound 146], the Ki in assay [1] (Table 2) amounted to 17 nM. Moreover, the IC50 in assay [2] (Table 2, anti-IgM stimulation) is 5200 nM.

In turn, `Cn1cc(-c2ccnc(N3CCn4c(cc5c4CC(C)(C)C5)C3=O)c2CO)cc(NC(=O)[C@H]2CC23CCC3)c1=O` (single isomer, unassigned) [Compound 147] yielded an inhibition constant Ki in assay [1] (Table 2) of 4.8 nM. In assay [2] (Table 2, anti-IgM stimulation), this compound had an IC50 of 910 nM.

In turn, `Cn1cc(-c2ccnc(-n3ncc4cc(C(C)(C)C)cc(F)c4c3=O)c2CO)cc(NC(=O)[C@@H]2CC23CC3)c1=O` (single isomer, unassigned) [Compound 161] gave a Ki in assay [1] (Table 2) of 3.7 nM. The same compound showed an IC50 in assay [2] (Table 2, anti-IgM stimulation) of 338 nM.

In assay [1] (Table 2), `Cn1cc(-c2ccnc(-n3ncc4cc(C(C)(C)C)cc(F)c4c3=O)c2CO)cc(NC(=O)[C@H]2CC23CC3)c1=O` (single isomer, unassigned) [Compound 162] registered a Ki of 5 nM. Besides, inhibition in assay [2] (Table 2, anti-IgM stimulation) was half-maximal at 786 nM (IC50).

As to `CN1CCC2(CC1)C[C@H]2C(=O)Nc1cc(-c2ccnc(-n3ncc4cc(C(C)(C)C)cc(F)c4c3=O)c2CO)cn(C)c1=O` (single isomer, unassigned) [Compound 165], the Ki in assay [1] (Table 2) came out at 40.8 nM. The IC50 in assay [2] (Table 2, anti-IgM stimulation) is greater than 4800 nM.

For `CN1CCC2(CC1)C[C@@H]2C(=O)Nc1cc(-c2ccnc(-n3ncc4cc(C(C)(C)C)cc(F)c4c3=O)c2CO)cn(C)c1=O` (single isomer, unassigned) [Compound 166], the affinity in assay [1] (Table 2) corresponds to a Ki of 5.4 nM. Also, the IC50 in assay [2] (Table 2, anti-IgM stimulation) stood at 1600 nM.

`CN1CC[C@]2(C[C@H]2C(=O)Nc2cc(-c3ccnc(-n4ncc5cc(C(C)(C)C)cc(F)c5c4=O)c3CO)cn(C)c2=O)C1` (single isomer, unassigned) [Compound 169] showed a Ki in assay [1] (Table 2) of 38.4 nM. Moreover, the IC50 in assay [2] (Table 2, anti-IgM stimulation) was greater than 4800 nM.

With `CN(C)C(=O)C1C[C@H]1C(=O)Nc1cc(-c2ccnc(-n3ncc4cc(C(C)(C)C)cc(F)c4c3=O)c2CO)cn(C)c1=O` (single isomer, unassigned) [Compound 170, N2-[5-[2-(6-tert-butyl-8-fluoro-1-oxo-phthalazin-2-yl)-3-(hydroxymethyl)-4-pyridyl]-1-methyl-2-oxo-3-pyridyl]-N1,N1-dimethyl-cyclopropane-1,2-dicarboxamide], the affinity in assay [1] (Table 2), expressed as Ki, was 25 nM. Moreover, in assay [2] (Table 2, anti-IgM stimulation), the IC50 is greater than 4800 nM.

Regarding `CN(C)C(=O)C1C[C@@H]1C(=O)Nc1cc(-c2ccnc(-n3ncc4cc(C(C)(C)C)cc(F)c4c3=O)c2CO)cn(C)c1=O` (single isomer, unassigned) [Compound 171, N2-[5-[2-(6-tert-butyl-8-fluoro-1-oxo-phthalazin-2-yl)-3-(hydroxymethyl)-4-pyridyl]-1-methyl-2-oxo-3-pyridyl]-N1,N1-dimethyl-cyclopropane-1,2-dicarboxamide], the Ki in assay [1] (Table 2) was determined as 91.5 nM. Besides, in assay [2] (Table 2, anti-IgM stimulation), the IC50 is greater than 4800 nM.

In turn, `CN1CC[C@]2(C[C@@H]2C(=O)Nc2cc(-c3ccnc(-n4ncc5cc(C(C)(C)C)cc(F)c5c4=O)c3CO)cn(C)c2=O)C1` (single isomer, unassigned) [Compound 173] returned a Ki in assay [1] (Table 2) of 26 nM. For the same compound, in assay [2] (Table 2, anti-IgM stimulation), the IC50 was greater than 4800 nM.

Compound `CN1CC[C@@]2(C[C@@H]2C(=O)Nc2cc(-c3ccnc(-n4ncc5cc(C(C)(C)C)cc(F)c5c4=O)c3CO)cn(C)c2=O)C1` (single isomer, unassigned) [Compound 174] gave a Ki in assay [1] (Table 2) of 7.2 nM. Moreover, the IC50 in assay [2] (Table 2, anti-IgM stimulation) is 1500 nM.

In assay [1] (Table 2), `CN1CC[C@@]2(C[C@H]2C(=O)Nc2cc(-c3ccnc(-n4ncc5cc(C(C)(C)C)cc(F)c5c4=O)c3CO)cn(C)c2=O)C1` (single isomer, unassigned) [Compound 175] had a Ki of 7.6 nM. Besides, the IC50 in assay [2] (Table 2, anti-IgM stimulation) was greater than 4800 nM.

Compound `Cn1cc(-c2ccnc(N3CCn4c(cc5c4CC(C)(C)C5)C3=O)c2CO)cc(NC(=O)CN2CCOCC2)c1=O` [Compound 105, N-[5-[2-(7,7-dimethyl-4-oxo-1,2,6,8-tetrahydrocyclopenta[3,4]pyrrolo[3,5-b]pyrazin-3-yl)-3-(hydroxymethyl)-4-pyridyl]-1-methyl-2-oxo-3-pyridyl]-2-morpholino-acetamide] registered a Ki in assay [1] (Table 1) greater than 55.6 nM. This compound came in with an IC50 in assay [2] (Table 1, anti-IgM stimulation) greater than 5000 nM.

`CC1CC1C(=O)Nc1cc(-c2ccnc(N3CCn4c(cc5c4CC(C)(C)C5)C3=O)c2CO)cn(C)c1=O` (stereo not shown) [Compound 106, N-[5-[2-(7,7-dimethyl-4-oxo-1,2,6,8-tetrahydrocyclopenta[3,4]pyrrolo[3,5-b]pyrazin-3-yl)-3-(hydroxymethyl)-4-pyridyl]-1-methyl-2-oxo-3-pyridyl]-2-methyl-cyclopropanecarboxamide] returned a Ki in assay [1] (Table 1) of 10.6 nM. Moreover, 373 nM corresponded to half-maximal inhibition in assay [2] (Table 1, anti-IgM stimulation) (IC50).

In assay [1] (Table 1), `Cc1cc(C)n(CC(=O)Nc2cc(-c3ccnc(N4CCn5c(cc6c5CC(C)(C)C6)C4=O)c3CO)cn(C)c2=O)n1` [Compound 108, N-[5-[2-(7,7-dimethyl-4-oxo-1,2,6,8-tetrahydrocyclopenta[3,4]pyrrolo[3,5-b]pyrazin-3-yl)-3-(hydroxymethyl)-4-pyridyl]-1-methyl-2-oxo-3-pyridyl]-2-(3,5-dimethylpyrazol-1-yl)acetamide] gave a Ki of 51.6 nM. The same compound showed an IC50 in assay [2] (Table 1, anti-IgM stimulation) of 2400 nM.

Regarding `Cn1cc(C(=O)Nc2cc(-c3ccnc(N4CCn5c(cc6c5CC(C)(C)C6)C4=O)c3CO)cn(C)c2=O)cn1` [Compound 110, N-[5-[2-(7,7-dimethyl-4-oxo-1,2,6,8-tetrahydrocyclopenta[3,4]pyrrolo[3,5-b]pyrazin-3-yl)-3-(hydroxymethyl)-4-pyridyl]-1-methyl-2-oxo-3-pyridyl]-1-methyl-pyrazole-4-carboxamide], the Ki in assay [1] (Table 1) was greater than 167 nM. The IC50 in assay [2] (Table 1, anti-IgM stimulation) was greater than 2600 nM.
